Broadly, the IC50 is the concentration that inhibits the measured activity by half.

The results in this text go back to patent publication US12473295B2, “Substituted straight chain spiro derivatives” (Janssen Pharmaceutica NV, priority 2019, dated 2025).

Structures can show the parent of a compound that is named as a salt. Where two headings read alike, the source gives them in different places.

In data set [1] the target is menin/MLL (terbium chelate-labeled menin, FITC-MBM1 peptide) (Homo sapiens (Human), UniProt O00255). Description: Menin/MLL homogenous time-resolved fluorescence (HTRF) assay.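 Also: IC50 from percent inhibition of HTRF signal, normalized between wells without competitor and wells with a saturating competitor that displaces FITC-MBM1 from His-tagged menin.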 Type of data set: binding. For orientation: Time-resolved FRET reads energy transfer from a long-lived donor to a nearby acceptor.
The subject of another data set is MOLM14 cells. Description: Proliferation assay (spheroid growth, 8 days), MOLM14.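 Also: spheroid size read as confluence by live-cell imaging, compounds added at a range of concentrations with 0.3% DMSO, DMSO-treated wells = 0%, highest reference dose = low control.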 The class given is cell-based, human. The note with it: MOLM14, 8 days, read-out: spheroid assay_OneTime MOLM14 IC50.
The subject of a further data set is OCI-AML3 cells. Briefly: Proliferation assay (spheroid growth, 8 days), OCI-AML3. Type of data set: cell-based, human. The procedure, abridged:
(§1)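 Cells were seeded at 200 (MOLM14, OCI-AML3) or 300 (KO-52) per well in ultra-low attachment round-bottom plates with compounds at several concentrations, 0.3% DMSO, and grown 8 days at 37° C. Spheroid confluence was imaged on day 8; IC50 came from a variable-slope fit normalized to DMSO and high-dose reference compound.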

For the next data set, the system named is KO-52 cells. Briefly: Proliferation assay (spheroid growth, 8 days), KO-52 control cell line. The class given is cell-based, human. The note with it: read-out: spheroid assay_OneTime KO-52 IC50. The procedure, abridged: as §1
The test system of a further data set is MEIS1 mRNA. Briefly: MEIS1 mRNA expression assay (Quantigene Singleplex) in MOLM14 cells.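 Also: MEIS1 transcript levels read by probe hybridization and normalized to RPL28 mRNA, with IC50 fitted to fold changes across a rising compound concentration series.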 The class given is cell-based, human.
A further data set deals with hERG potassium channel (Homo sapiens (Human), UniProt Q12809). Description: Effect on membrane potassium current IKr in hERG transfected CHO cells, Protocol 1 (QPatch). Type of data set: cell-based. The method, then:
8) Effect on the Membrane Potassium Current IKr in hERG Transfected Cell Lines
• CHO Chinese hamster ovary cell line • DMSO Dimethylsulfoxide • hERG human ether-á-go-go-related gene • IKr rapidly activating delayed-rectifier K^+ current Methods
Experiments were performed using CHO cells stably expressing the hERG potassium channel. Cells were grown at 37° C. and 5% CO2 in culture flasks in Ham's F12 Medium supplemented with 10% heat-inactivated fetal calf serum, hygromycin B (100 μg/ml) and geneticin (100 μg/ml). For use in the automated patch-clamp system QPatch (Sophion) cells were harvested to obtain cell suspension of single cells.
Solutions: The bath solution contained (in mM) 145 NaCl, 4 KCl, 10 glucose, 10 HEPES ((4-(2-hydroxyethyl)-1-piperazineethanesulfonic acid), 2 CaCl2 and 1 MgCl2 (pH 7.4 with NaOH). The pipette solution contained (in mM) 120 KCl, 10 EGTA (Ethylene glycol-bis(2-aminoethylether)-N,N,N′,N′-tetraacetic acid), 10 HEPES, 5.374 CaCl2 and 1.75 MgCl2 (pH 7.2 with KOH).
Patch-clamp experiments were performed in the voltage-clamp mode and whole-cell currents were recorded with an automated patch-clamp assay utilizing the QPatch system (Sophion). Current signals were amplified and digitized, stored and analyzed by using the QPatch assay software.
The holding potential was −80 mV. The hERG current (K^+-selective outward current) was determined as the maximal tail current at −40 mV after a 2 second depolarization to +60 mV. Pulse cycling rate was 15 s. A short pulse (90 ms) to −40 mV served as a baseline step to calculate the tail current amplitude. After establishing whole-cell configuration and a stability period, the solvent control (0.3% DMSO) was applied for 5 minutes followed by the test substance by four increasing concentrations of 3×10^−7 M, 3×10^−6 M, 10^−5 M and 3×10^−5 M. Each concentration of the test substance was applied twice. The effect of each concentration was determined after 5 min as an average current of 3 sequential voltage pulses. To determine the extent of block the residual current was compared with vehicle pre-treatment.
Concentration/response relations were calculated by non-linear least-squares fits to the individual data points. The half-maximal inhibiting concentration (IC50) was calculated by the fitting routine.
Background: Block of hERG is tested as a sign of cardiac risk.

[2] abbreviates: HTRF-30 min incubation IC50, 30 min incubation.
Where [3] appears, read: Homo sapiens, OCI-AML-3, […], OCI-AML3, 8 days.
Setting [4] is: Homo sapiens, MOLM-14, 48 h, 48 hours incubation.

Chain of hERG potassium channel (Q12809 whole entry): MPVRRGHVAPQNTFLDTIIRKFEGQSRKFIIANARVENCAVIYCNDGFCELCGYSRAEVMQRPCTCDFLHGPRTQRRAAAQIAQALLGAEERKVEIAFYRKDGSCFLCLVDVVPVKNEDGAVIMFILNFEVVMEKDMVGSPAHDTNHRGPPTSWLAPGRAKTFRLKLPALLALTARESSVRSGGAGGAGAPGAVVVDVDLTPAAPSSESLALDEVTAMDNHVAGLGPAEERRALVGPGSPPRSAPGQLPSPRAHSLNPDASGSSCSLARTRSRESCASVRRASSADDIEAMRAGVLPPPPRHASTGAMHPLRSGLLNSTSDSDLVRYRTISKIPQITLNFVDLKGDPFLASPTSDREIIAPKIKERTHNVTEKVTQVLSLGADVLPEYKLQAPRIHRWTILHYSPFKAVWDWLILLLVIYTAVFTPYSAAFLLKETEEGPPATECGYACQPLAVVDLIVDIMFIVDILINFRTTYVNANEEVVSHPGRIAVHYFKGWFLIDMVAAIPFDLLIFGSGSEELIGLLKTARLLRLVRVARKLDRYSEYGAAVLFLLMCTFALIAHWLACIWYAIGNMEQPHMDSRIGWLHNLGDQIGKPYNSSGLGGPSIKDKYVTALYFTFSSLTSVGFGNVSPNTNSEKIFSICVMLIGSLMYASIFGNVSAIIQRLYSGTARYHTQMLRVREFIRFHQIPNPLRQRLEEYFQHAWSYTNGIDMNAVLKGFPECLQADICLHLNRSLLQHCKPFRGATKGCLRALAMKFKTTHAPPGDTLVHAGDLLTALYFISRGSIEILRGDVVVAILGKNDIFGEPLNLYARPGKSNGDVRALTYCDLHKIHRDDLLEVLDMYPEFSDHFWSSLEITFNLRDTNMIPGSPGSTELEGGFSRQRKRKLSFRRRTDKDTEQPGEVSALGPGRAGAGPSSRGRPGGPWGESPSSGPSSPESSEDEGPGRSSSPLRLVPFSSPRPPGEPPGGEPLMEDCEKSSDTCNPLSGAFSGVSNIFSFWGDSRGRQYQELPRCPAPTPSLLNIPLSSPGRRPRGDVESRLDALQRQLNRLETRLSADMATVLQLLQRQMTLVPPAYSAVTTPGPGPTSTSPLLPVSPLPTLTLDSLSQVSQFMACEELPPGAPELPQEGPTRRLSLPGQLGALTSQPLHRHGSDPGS
Chain of menin/MLL (terbium chelate-labeled menin, FITC-MBM1 peptide) (O00255 other isoform, or with tags, fused parts or gaps): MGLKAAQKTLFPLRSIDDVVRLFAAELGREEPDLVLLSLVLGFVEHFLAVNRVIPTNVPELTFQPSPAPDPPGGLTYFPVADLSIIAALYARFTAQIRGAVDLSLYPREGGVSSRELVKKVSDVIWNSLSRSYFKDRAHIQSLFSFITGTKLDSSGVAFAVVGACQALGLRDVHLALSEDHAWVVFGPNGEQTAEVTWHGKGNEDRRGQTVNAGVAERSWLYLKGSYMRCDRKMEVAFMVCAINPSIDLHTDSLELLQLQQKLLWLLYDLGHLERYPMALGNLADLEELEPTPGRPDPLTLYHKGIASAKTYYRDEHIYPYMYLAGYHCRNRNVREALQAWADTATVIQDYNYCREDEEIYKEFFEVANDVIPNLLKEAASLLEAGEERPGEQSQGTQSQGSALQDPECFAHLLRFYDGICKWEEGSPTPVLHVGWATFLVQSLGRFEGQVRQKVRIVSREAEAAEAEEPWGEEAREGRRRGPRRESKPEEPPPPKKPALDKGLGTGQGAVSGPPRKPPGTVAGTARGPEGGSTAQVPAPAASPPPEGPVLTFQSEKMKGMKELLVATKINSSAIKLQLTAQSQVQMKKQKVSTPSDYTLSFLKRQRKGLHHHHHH

With `CCN(C(=O)c1cc(F)ccc1Oc1nncnc1N1CCC2(C1)CN([C@H](CCC(C)(C)N(C)C)C(C)C)C2)C(C)C` (single isomer, unassigned) [Compound 32, (*R)-2-((5(2-(6-(dimethylamino)-2,6-dimethylheptan-3-yl)-2,6-diazaspiro[3.4]octan-6-yl)-1,2,4-triazin-6-yl)oxy)-N-ethyl-5-fluoro-N-isopropylbenzamide], the IC50 in data set [1] (setting [2]) is 0.1 nM; in the data set on MOLM14 cells (Homo sapiens, MOLM-14, […]), 58 nM; in the data set with OCI-AML3 cells (setting [3]) it was 280 nM; in the data set on KO-52 cells (Homo sapiens, […]), 12900 nM; with MEIS1 mRNA (setting [4]), 88 nM; at hERG potassium channel, above 30200 nM.
With `CCN(C(=O)c1cc(F)ccc1Oc1nncnc1N1CCC2(C1)CN([C@H](CCCNC(=O)OC(C)OC(=O)C(C)C)C(C)C)C2)C(C)C` (stereo partly drawn) [Compound 39, 1-((((R)-4-(6-(6-(2-(ethyl(isopropyl)carbamoyl)-4-fluorophenoxy)-1,2,4-triazin-5-yl)-2,6-diazaspiro[3.4]octan-2-yl)-5-methylhexyl)carbamoyl)oxy)ethyl isobutyrate], the half-inhibitory concentration (IC50) in data set [1] (setting [2]) is 0.26 nM; with MOLM14 cells (Homo sapiens, MOLM-14, […]) it was 27 nM; in the data set with OCI-AML3 cells (setting [3]) it was 140 nM; with KO-52 cells (Homo sapiens, […]), above 15000 nM; in the data set on MEIS1 mRNA (setting [4]) it was 44 nM; against hERG potassium channel it was 7600 nM.
Consider `CC(C)[C@@H](CCCN(C)C)N1CC2(CCN(c3ccnnc3Oc3ccc(F)cc3C(=O)N(C(C)C)C(C)C)C2)C1` (single isomer, unassigned) [Compound 75, (*R)-2-((4-(2-(6-(dimethylamino)-2-methylhexan-3-yl)-2,6-diazaspiro[3.4]octan-6-yl)pyridazin-3-yl)oxy)-5-fluoro-N,N-diisopropylbenzamide], for which the half-inhibitory concentration (IC50) is 0.21 nM in data set [1] (read-out: HTRF-30 min incubation IC50, 30 min incubation); 53 nM in the data set with MOLM14 cells; 410 nM in the data set on OCI-AML3 cells (OCI-AML3, 8 days); above 15000 nM with KO-52 cells; 140 nM in the data set on MEIS1 mRNA (48 hours incubation); above 30200 nM at hERG potassium channel.
For the molecule `CCN(C(=O)c1cc(F)ccc1Oc1nncnc1N1CCC2(C1)CN([C@H](CCCN(C)CC(=O)N(C)C)C(C)C)C2)C(C)C` [Compound 23], the concentration for half-maximal inhibition (IC50) is 0.22 nM in data set [1] (setting [2]); 170 nM with MOLM14 cells (Homo sapiens, MOLM-14, […]); 810 nM in the data set with OCI-AML3 cells (setting [3]); 13800 nM in the data set on KO-52 cells (Homo sapiens, […]); 150 nM in the data set with MEIS1 mRNA (setting [4]); above 30200 nM at hERG potassium channel.
With `COCCN(C)CCC[C@H](C(C)C)N1CC2(CCN(c3ncnnc3Oc3ccc(F)cc3C(=O)N(C(C)C)C(C)C)C2)C1` (single isomer, unassigned) [Compound 94, (*R)-5-fluoro-N,N-isopropyl-2-((5-(2-(6-((2-methoxyethyl)(methyl)amino)-methylhexan-3-yl)-2,6-diazaspiro[3.4]octan-6-yl)-1,2,4-triazin-6-yl)oxy)benzamide oxalate], the concentration for half-maximal inhibition (IC50) in data set [1] (setting [2]) was found to be 0.12 nM; in the data set on MOLM14 cells (Homo sapiens, MOLM-14, […]), 10 nM; in the data set with OCI-AML3 cells (setting [3]), 96 nM; in the data set on KO-52 cells (Homo sapiens, […]), 4750 nM; with MEIS1 mRNA (setting [4]) it was 8.2 nM; on hERG potassium channel it was 30900 nM.
`CCN(C(=O)c1cc(F)ccc1Oc1nncnc1N1CCC2(C1)CN([C@H](CCC(C)(C)NC)C(C)C)C2)C(C)C` (single isomer, unassigned) [Compound 35, (*R)-2-((5-(2-(2,6-dimethyl-6-(methylamino)heptan-3-yl)-2,6-diazaspiro[3.4]octan-6-yl)-1,2,4-triazin-6-yl)oxy)-N-ethyl-5-fluoro-N-isopropylbenzamide hydrochloride]: the IC50 is 0.15 nM in data set [1] (setting [2]); 200 nM in the data set on MOLM14 cells (Homo sapiens, MOLM-14, […]); 490 nM in the data set on OCI-AML3 cells (setting [3]); above 15000 nM in the data set on KO-52 cells (Homo sapiens, […]); 120 nM in the data set with MEIS1 mRNA (setting [4]); above 30200 nM at hERG potassium channel.
With `CCN(C(=O)c1cc(F)ccc1Oc1nncnc1N1CCC2(C1)CN([C@H](CCCNCC(F)(F)F)C(C)C)C2)C(C)C` [Compound 17, (R)-N-ethyl-5-fluoro-N-isopropyl-2-((5-(2-(2-methyl-6-((2,2,2-trifluoroethyl)amino)hexan-3-yl)-2,6-diazaspiro[3.4]octan-6-yl)-1,2,4-triazin-6-yl)oxy)benzamide], the 50% inhibitory concentration (IC50) in data set [1] (setting [2]) was 0.61 nM; with MOLM14 cells (Homo sapiens, MOLM-14, […]), 300 nM; in the data set with OCI-AML3 cells (setting [3]) it was 1440 nM; with KO-52 cells (Homo sapiens, […]) it was 6790 nM; in the data set on MEIS1 mRNA (setting [4]), 240 nM; against hERG potassium channel, 4100 nM.
Regarding `CCN(C(=O)c1cc(F)ccc1Oc1nncnc1N1CCC2(C1)CN([C@H](CCCNC(=O)OC)C(C)C)C2)C(C)C` [Compound 10, methyl (R)-(4-(6-(6-(2-(ethyl(isopropyl)carbamoyl)-4-fluorophenoxy)-1,2,4-triazin-5-yl)-2,6-diazaspiro[3.4]octan-2-yl)-5-methylhexyl)carbamate], the IC50 in data set [1] (setting [2]) is 0.18 nM; with MOLM14 cells (Homo sapiens, MOLM-14), 340 nM; with OCI-AML3 cells (Homo sapiens, OCI-AML-3, OCI-AML3, 8 days) it was 1680 nM; with KO-52 cells (Homo sapiens), above 15000 nM; with MEIS1 mRNA (Homo sapiens, MOLM-14, 48 hours incubation) it was 410 nM; at hERG potassium channel, above 30200 nM.
Regarding `CCN(C(=O)c1cc(F)ccc1Oc1nncnc1N1CCC2(C1)CN([C@H](CCC(C)(C)NC(C)=O)C(C)C)C2)C(C)C` (single isomer, unassigned) [Compound 34], the 50% inhibitory concentration (IC50) in data set [1] (setting [2]) is 0.87 nM; in the data set on MOLM14 cells (Homo sapiens, MOLM-14, […]) it was 3840 nM; in the data set on OCI-AML3 cells (setting [3]) it was 3440 nM; in the data set with KO-52 cells (Homo sapiens, […]), above 15000 nM; in the data set on MEIS1 mRNA (setting [4]), above 1000 nM; against hERG potassium channel, above 30200 nM.
As for `CCN(C(=O)c1cc(F)ccc1Oc1nncnc1N1CCC2(C1)CN([C@H](CCCN(C)C)C(C)C)C2)C(C)C` [Compound 4, (R)-2-((5-(2-(6-(dimethylamino)-2-methylhexan-3-yl)-2,6-diazaspiro[3.4]octan-6-yl)-1,2,4-triazin-6-yl)oxy)-N-ethyl-5-fluoro-N-isopropylbenzamide], the concentration for half-maximal inhibition (IC50) is 0.095 nM in data set [1] (setting [2]); 30 nM with MOLM14 cells (Homo sapiens, MOLM-14, […]); 390 nM in the data set with OCI-AML3 cells (setting [3]); above 15000 nM with KO-52 cells (Homo sapiens, […]); 20 nM in the data set with MEIS1 mRNA (setting [4]); above 30200 nM against hERG potassium channel.
As to `CCN(C(=O)c1cc(F)ccc1Oc1nncnc1N1CCC2(C1)CN([C@H](CCCN(C)C(=O)OC(C)OC(=O)C(C)C)C(C)C)C2)C(C)C` (stereo partly drawn) [Compound 40, 1-((((R)-4-(6-(6-(2-(ethyl(isopropyl)carbamoyl)-4-fluorophenoxy)-1,2,4-triazin-5-yl)-2,6-diazaspiro[3.4]octan-2-yl)-5-methylhexyl)(methyl)carbamoyl)oxy)ethyl isobutyrate], the 50% inhibitory concentration (IC50) in data set [1] (setting [2]) was found to be 0.4 nM; in the data set on MOLM14 cells (Homo sapiens, MOLM-14, […]) it was 19 nM; with OCI-AML3 cells (setting [3]) it was 74 nM; in the data set with KO-52 cells (Homo sapiens, […]), 9540 nM; in the data set with MEIS1 mRNA (setting [4]), 19 nM; against hERG potassium channel, 5000 nM.
